Reference: ChEMBL document CHEMBL1201862, “PubChem BioAssay data set” (2004)
Calls of active or inactive are those of the source.

How the values were obtained:
[1] = target: 26S proteasome non-ATPase regulatory subunit 14 (Homo sapiens, UniProt O00487); assay: inhibition of proteasome subunit RPN11 – biochemical, fluorescence polarization, uHTS hits, confirmation (AID 602368); type: functional
[2] = target: 72 kDa type IV collagenase (Homo sapiens, UniProt P08253); assay: Dose Response validation of uHTS RPN11 inhibitor hits using a MMP-2 Fluorescence assay.; type: functional
Prothrombin = Prothrombin (Bos taurus, UniProt P00735); assay: thrombin inhibition, dose response, biochemical, fluorescence polarization, uHTS hits (AID 602369); type: functional
[3] = HEp-2 cell cytotoxicity, dose response, cytotoxicity control for RSV inhibitor project, HTS (AID 2410); type: functional; settings: human respiratory syncytial virus
[4] = target: T1, Rac GTPase-activating protein 1 (Homo sapiens, UniProt Q9H0H5); assay: MgcRacGAP GTPase-activating activity inhibitors, confirmation, biochemical, ADP Hunter fluorescence, primary and confirmatory (AID 624330); type: functional
T1 sequence (Q9H0H5 whole entry): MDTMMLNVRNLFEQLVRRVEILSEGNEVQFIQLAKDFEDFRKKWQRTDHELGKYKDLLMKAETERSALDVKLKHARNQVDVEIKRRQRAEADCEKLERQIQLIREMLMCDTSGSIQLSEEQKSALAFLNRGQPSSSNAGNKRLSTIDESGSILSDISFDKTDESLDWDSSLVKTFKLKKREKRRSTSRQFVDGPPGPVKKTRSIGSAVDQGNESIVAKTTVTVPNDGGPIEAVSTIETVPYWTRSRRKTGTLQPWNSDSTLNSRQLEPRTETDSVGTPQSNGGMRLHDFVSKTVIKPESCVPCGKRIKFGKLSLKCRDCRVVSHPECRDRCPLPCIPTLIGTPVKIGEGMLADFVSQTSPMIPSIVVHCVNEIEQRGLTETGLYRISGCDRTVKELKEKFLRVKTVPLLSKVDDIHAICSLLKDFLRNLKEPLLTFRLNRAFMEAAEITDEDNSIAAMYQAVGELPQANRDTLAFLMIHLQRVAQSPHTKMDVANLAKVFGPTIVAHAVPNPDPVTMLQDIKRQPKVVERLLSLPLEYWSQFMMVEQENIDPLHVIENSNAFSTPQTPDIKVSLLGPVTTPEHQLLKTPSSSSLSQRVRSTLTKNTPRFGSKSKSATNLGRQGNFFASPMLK

[5] = HeLa cell cytotoxicity, dose response, cytotoxicity control for MgcRacGAP inhibitor project (AID 624300); type: functional
[6] = (§1) Counterscreen for antagonists of the orexin 1 receptor (OX1R; HCRTR1): Fluorescence-based cell-based high throughput dose response assay to identify antagonists of the parental CHO cell line. [Related pubchem assays (depositor defined):AID434989, AID435008, AID463079, AID485270, AID492963, AID492964, AID492965, AID493232, AID504699, AID504701]; type: functional
[7] = target: T2, Orexin/Hypocretin receptor type 1 (Homo sapiens, UniProt O43613); assay: (§2) Fluorescence-based cell-based high throughput dose response assay for antagonists of the orexin 1 receptor (OX1R; HCRTR1). [Related pubchem assays (depositor defined):AID434989, AID435008, AID463079, AID485270, AID492963, AID492964, AID492965, AID493232, AID504717, AID504718]; type: functional
T2 sequence (O43613 whole entry): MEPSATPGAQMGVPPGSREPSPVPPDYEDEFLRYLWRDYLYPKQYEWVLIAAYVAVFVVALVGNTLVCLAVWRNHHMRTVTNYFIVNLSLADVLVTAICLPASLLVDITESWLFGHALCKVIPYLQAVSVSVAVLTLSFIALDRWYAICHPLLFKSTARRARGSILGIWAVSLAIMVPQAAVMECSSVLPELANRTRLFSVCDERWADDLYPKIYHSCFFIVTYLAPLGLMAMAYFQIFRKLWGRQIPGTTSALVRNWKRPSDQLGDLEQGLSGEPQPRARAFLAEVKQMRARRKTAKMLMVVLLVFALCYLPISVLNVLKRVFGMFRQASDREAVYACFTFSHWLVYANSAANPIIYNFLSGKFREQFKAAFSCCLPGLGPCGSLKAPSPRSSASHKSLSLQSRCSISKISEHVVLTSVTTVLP

CHO-K1 = assay: as §1, with “Homogeneous time resolved fluorescence (HTRF)-based” for “Fluorescence-based”, “cell-based” for “cell-based high throughput”, “CHO-K1” for “CHO”; type: functional; settings: Cricetulus griseus;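 also: potency for inhibition of ATP-stimulated IP1 production as antagonists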
[8] = target: T2, Orexin/Hypocretin receptor type 1; assay: as §2, with “Homogeneous Time Resolved Fluorescence (HTRF)-based” for “Fluorescence-based”; type: functional
Orexin receptor type 2 [9] = target: T3, Orexin receptor type 2 (Homo sapiens, UniProt O43614); assay: Counterscreen assay for antagonists of the orexin 1 receptor (OX1R; HCRTR1): Fluorescence-based cell-based dose response assay for antagonists of the orexin 2 receptor (OX2R; HCRTR2), run by assay provider.; type: functional
T3 sequence (O43614 whole entry): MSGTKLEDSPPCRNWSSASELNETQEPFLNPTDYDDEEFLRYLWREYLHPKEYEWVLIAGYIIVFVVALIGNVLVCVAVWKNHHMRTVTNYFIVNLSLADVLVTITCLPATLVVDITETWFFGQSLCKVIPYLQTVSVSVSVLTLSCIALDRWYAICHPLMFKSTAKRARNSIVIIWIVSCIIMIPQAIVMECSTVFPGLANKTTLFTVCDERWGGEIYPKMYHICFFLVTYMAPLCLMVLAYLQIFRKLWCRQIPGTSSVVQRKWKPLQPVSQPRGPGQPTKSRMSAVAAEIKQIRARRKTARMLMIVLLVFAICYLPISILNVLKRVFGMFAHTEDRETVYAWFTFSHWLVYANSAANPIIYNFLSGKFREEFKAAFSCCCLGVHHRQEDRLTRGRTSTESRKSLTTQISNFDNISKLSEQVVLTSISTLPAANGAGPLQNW

Orexin receptor type 2 [10] = target: T3, Orexin receptor type 2; assay: Counterscreen assay for antagonists of the orexin 1 receptor (OX1R; HCRTR1): Homogeneous Time Resolved Fluorescence (HTRF)-based cell-based dose response assay for antagonists of the orexin 2 receptor (OX2R; HCRTR2), run by assay provider.; type: functional
[11] = target: T4, Corticotropin-releasing factor receptor 2/Corticotropin-releasing factor-binding protein (Homo sapiens, UniProt P24387+Q13324); assay: activators of CRF receptor 2 with binding protein – uHTS hits, confirmation (AID 602473); type: functional; settings: read-out: EC50_Mean
T4 sequence (Q13324 whole entry): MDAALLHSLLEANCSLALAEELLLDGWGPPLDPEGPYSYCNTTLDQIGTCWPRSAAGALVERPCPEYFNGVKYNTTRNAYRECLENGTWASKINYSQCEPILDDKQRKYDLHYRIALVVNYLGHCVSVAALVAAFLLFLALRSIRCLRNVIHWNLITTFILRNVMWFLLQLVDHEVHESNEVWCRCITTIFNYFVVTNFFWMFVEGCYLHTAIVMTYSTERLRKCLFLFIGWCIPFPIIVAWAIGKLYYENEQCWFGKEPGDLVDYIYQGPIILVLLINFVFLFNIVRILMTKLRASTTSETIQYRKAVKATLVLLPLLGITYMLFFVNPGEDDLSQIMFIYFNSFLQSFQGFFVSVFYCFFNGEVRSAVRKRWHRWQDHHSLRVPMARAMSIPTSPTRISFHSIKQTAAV
T4 sequence (P24387 whole entry): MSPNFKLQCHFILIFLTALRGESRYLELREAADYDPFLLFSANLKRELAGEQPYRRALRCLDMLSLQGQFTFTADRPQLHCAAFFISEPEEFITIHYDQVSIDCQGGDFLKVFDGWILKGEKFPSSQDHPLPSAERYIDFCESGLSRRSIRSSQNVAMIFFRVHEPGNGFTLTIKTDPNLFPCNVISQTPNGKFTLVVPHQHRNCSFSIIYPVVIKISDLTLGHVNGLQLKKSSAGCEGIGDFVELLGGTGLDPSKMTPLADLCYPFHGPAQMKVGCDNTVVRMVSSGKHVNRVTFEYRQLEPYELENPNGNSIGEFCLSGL

[12] = cytotoxicity in MIN6 insulinoma cells, dose response, cytotoxicity control, cell-based, mouse insulinoma (AID 2122); type: functional;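 also: confirmatory high-throughput counterscreen run to flag cytotoxic compounds; mouse MIN-6 beta cells carrying an insulin promoter eGFP reporter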
BJ [13] = assay: cytotoxicity toward BJ-TERT fibroblasts, dose response, cell-based, RAS-independent, luminescence (AID 1933); type: functional; settings: Homo sapiens
[14] = C. albicans growth with fluconazole, confirmation, fluorescence, retest (AID 2467); type: functional, cell-based
BJ [15] = assay: cells; type: functional, cell-based; settings: Homo sapiens
[16] = NIH-3T3 fibroblast cytotoxicity, dose response, cytotoxicity control, cell-based, fluorescence, Alamar Blue, secondary assay (AID 2327); type: functional;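 also: NIH-3T3 mouse fibroblasts cultured with fluconazole at 8 µg/mL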
[17] = inhibitors of intracellular T. cruzi replication, confirmation, NIH3T3 host cells, beta-gal luminescence (AID 2044); type: functional, cell-based;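 also: intracellular parasites grown in NIH/3T3 mouse fibroblasts as host cells; luminescent beta-galactosidase reporter signal from transgenic T. cruzi replicating inside host cells; inhibitors lower the luminescence signal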
INS1 = assay: beta cell apoptosis inhibitors, cytokine rescue, dose response, luminescence, retest (AID 449756); type: functional, cell-based; settings: Rattus norvegicus;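 also: cell death triggered by IL-1 beta plus TNF-alpha plus IFN-gamma mixture; protective hits raise ATP signal compared with cytokine alone wells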
[18] = insulin promoter down-regulators in MIN6 cells, imaging, high-content screening, mouse beta cells (AID 1628); type: functional
HEK293 = assay: inhibitors of LMP1-driven NF-kB reporter, dose response, cell-based, HEK293, luciferase, cherry-pick (AID 588343); type: functional; settings: Homo sapiens
[19] = inhibitors of SNCA 5'UTR-driven reporter translation, confirmation, H4 neuroglioma cells, luminescence (AID 1988); type: functional, cell-based
cells [20] = type: functional, cell-based
[21] = cytotoxicity toward DRD oncogenic fibroblasts, dose response, cell-based, non-viral oncogenic, luminescence (AID 1934); type: functional; settings: Homo sapiens
BJ [22] = assay: cytotoxicity toward BJ-TERT-LT-ST fibroblasts, dose response, cell-based, RAS-independent, luminescence (AID 1935); type: functional; settings: Homo sapiens;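 also: BJ fibroblasts immortalized with TERT plus LT and ST oncogenes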
Cytochrome P450 3A4 = Cytochrome P450 3A4 (Homo sapiens, UniProt P08684);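 also: CYP3A4 tested as one member of a cytochrome P450 panel screen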
[23] = cytotoxicity toward NIH3T3 fibroblasts, dose response, counter-screen, cell-based, ATP luminescence, mouse fibroblasts (AID 2010); type: functional;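 also: cells exposed to compound for about 90 hours before reading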
[24] = inhibitors of firefly luciferase expression or activity, dose response, H4 neuroglioma cells, luminescence (AID 1990); type: functional, cell-based
[25] = Luminescence Cell-Based Dose Response HTS to Identify Inhibitors of 5'UTR Stem-Loop Driven Prion Protein mRNA Translation in H4 Neuroglioblastoma Cells. [Related pubchem assays: 1827 (Project Summary), 1813 (Primary HTS)]; type: functional
cells [26] = type: functional, cell-based; remark: listed apart in the source

Chain of 26S proteasome non-ATPase regulatory subunit 14 (O00487 whole entry): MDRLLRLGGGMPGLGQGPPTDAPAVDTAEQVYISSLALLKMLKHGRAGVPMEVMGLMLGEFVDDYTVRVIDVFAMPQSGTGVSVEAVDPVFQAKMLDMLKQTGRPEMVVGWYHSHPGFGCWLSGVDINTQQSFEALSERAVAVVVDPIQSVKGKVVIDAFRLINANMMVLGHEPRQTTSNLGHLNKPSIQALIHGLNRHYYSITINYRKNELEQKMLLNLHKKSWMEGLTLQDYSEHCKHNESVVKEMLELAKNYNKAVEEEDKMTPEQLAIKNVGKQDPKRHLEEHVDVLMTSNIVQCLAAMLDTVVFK
Chain of 72 kDa type IV collagenase (P08253 whole entry): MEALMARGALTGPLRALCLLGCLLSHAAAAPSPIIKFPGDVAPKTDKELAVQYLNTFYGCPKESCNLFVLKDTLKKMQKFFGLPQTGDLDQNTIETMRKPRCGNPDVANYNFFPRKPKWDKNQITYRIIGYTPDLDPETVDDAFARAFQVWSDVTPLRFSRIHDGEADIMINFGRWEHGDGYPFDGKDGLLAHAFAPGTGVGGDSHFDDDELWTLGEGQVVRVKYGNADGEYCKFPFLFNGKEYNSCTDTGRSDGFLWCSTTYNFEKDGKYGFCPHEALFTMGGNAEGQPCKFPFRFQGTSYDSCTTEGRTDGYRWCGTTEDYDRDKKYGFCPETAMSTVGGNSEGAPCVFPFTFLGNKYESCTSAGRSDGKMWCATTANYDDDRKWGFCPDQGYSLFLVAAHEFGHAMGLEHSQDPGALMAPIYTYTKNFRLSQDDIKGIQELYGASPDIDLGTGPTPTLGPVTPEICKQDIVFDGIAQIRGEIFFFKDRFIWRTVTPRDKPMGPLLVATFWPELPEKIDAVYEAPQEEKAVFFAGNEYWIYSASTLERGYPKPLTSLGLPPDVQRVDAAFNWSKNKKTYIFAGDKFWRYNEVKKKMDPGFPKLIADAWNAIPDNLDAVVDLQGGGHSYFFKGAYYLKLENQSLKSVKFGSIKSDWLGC
Chain of Cytochrome P450 3A4 (P08684 whole entry): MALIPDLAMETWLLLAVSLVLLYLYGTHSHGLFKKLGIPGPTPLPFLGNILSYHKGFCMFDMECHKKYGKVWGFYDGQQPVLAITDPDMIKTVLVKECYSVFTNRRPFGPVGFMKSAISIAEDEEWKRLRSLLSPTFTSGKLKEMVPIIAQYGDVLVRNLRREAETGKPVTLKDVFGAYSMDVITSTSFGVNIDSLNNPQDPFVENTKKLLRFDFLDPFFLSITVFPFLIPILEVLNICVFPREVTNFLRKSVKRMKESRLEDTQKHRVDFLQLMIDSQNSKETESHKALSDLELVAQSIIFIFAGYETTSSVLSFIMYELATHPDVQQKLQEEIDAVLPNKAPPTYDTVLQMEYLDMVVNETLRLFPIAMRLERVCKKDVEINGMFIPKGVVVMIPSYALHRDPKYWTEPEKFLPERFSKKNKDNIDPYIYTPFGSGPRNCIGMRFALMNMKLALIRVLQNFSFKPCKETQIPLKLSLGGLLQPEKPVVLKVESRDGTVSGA

For `Cc1ccc(C2CC(c3cccs3)=NN2S(=O)(=O)c2ccc(C)cc2)cc1` (stereo not given), the IC50 [1] was 43.4 µM (active), the IC50 [2] was > 100 µM (inactive) and the IC50 (Prothrombin) was 55.9 µM (active). For the same compound, the CC50 [3] was > 50 µM (active).

With `Cc1c(C(=O)N/N=C/c2ccc(O)c(Br)c2)sc(N)c1C#N` the IC50 [1] was 49.8 µM (active), the IC50 [2] was > 100 µM (inactive) and the IC50 (Prothrombin) was 48.9 µM (active). The IC50 [4] was 97.3 µM (active) and the CC50 [5] was 78.2 µM (active).

With `CCN(C(=O)CO/N=C/c1ccc(OC)cc1OC)c1c(N)n(Cc2ccccc2)c(=O)[nH]c1=O` the IC50 [6] was > 49.7 µM (inactive), the IC50 [7] was 5.93 µM (active) and the IC50 (CHO-K1) was > 66.2 µM (inactive). For the same compound, the IC50 [8] was 0.317 µM (active), the IC50 (Orexin receptor type 2 [9]) was 29 µM (inactive) and the IC50 (Orexin receptor type 2 [10]) was 1.77 µM (active).

With `CCOc1cc(/C=C2\C(=N)N3N=C(CC(=O)N4CCCCC4)SC3=NC2=O)ccc1O` the IC50 [1] was 37.6 µM (active), the IC50 [2] was > 100 µM (inactive) and the IC50 (Prothrombin) was 33.4 µM (active). For the same compound, the EC50 [11] was 6.32 µM (active).

In the case of `COc1ccc(O)c(/C=N/NC(=O)c2ccc(OCc3cccc(Br)c3)cc2)c1`, the IC50 [12] was 2.84 µM (active), the IC50 [1] was 37.9 µM (active) and the EC50 (BJ [13]) was 9.05 µM (active). The EC50 [14] was > 38 µM (not active), the IC50 [2] was > 100 µM (inactive) and the EC50 (BJ [15]) was 110 µM (active). For the same compound, the IC50 (Prothrombin) was 68.3 µM (active), the EC50 [16] was 17.5 µM (inconclusive) and the EC50 [17] was 0.77 µM (active). For the same compound, the AC50 (INS1) was 2.61 µM (active), the IC50 [18] was 3.56 µM (active) and the AC50 (HEK293) was 3.86 µM (active). For the same compound, the EC50 [19] was 2.97 µM (active), the EC50 (cells [20]) was > 350 µM (not active) and the EC50 [21] was 16.3 µM (active). For the same compound, the EC50 (BJ [22]) was 20.1 µM (active), the AC50 (Cytochrome P450 3A4) was 7.08 µM (inconclusive) and the EC50 [23] was 7.23 µM (active). For the same compound, the EC50 [24] was 0.239 µM (active), the EC50 [25] was 6.79 µM (active) and the EC50 (cells [26]) was > 350 µM (not active).
